US11260050B2, “Combination of cotinine plus antioxidant for treatment-resistant depression and correction of astrocytes functional deficit induced by depression and other neuropathological” (UNIVERSIDAD SAN SEBASTIAN, priority 2017, dated 2022)

Assays:
[1] = tested on: mice subjected to restraint stress; experiment: Elevated plus maze after restraint stress (Example 1, Experiment 1); assay type: in vivo, C57BL/6 mice; settings: RS mice, post-treatment with cotinine
Method: (§1) Mice were treated immediately after the 21 days of immobilization stress (6 h/day) until euthanasia. Mice (n=5-8/condition) received daily treatments with 1. PBS (phosphate buffer saline, pH 7.4) via intranasal (2×12 μl/nostril), 2. PBS via gavage (50 μl); 3. Cotinine dissolved in PBS via oral (gavage, (0.5 mg/kg; Cot 0.5); 4. Cotinine dissolved in PBS via intranasal (Cot IN, 10 mg/ml, 2×12 μl/nostril).
(§2) To induce chronic stress, the restraint stress paradigm was used as previously described. Mice are immobilized in 50 ml falcon plastic tubes that were attached to mouse cages. The immobilization proceeded during 6 h from 9:00 AM to 3:00 PM in absence of treatments. Tubes have holes in the opposite side of the tube to allow the animal breathing and urination. Mice were almost completely immobilized for 6 h/day for 21 days after which they were permitted freely to move, eat and drink.
Anxiety was assessed through the elevated plus maze (EPM). EPM is considered one of the best choices to test anxiolytic effects of drugs. This test is based on the observation that most of the time higher anxiety levels will diminish the time exploring new environments as a form to avoid danger (open arms).
To determine the level of anxiety, mice were tested in the EPM. […]

[2] = tested on: mice subjected to restraint stress; experiment: Porsolt test after restraint stress, intranasal post-treatment (Example 1, Experiment 1); assay type: in vivo, C57BL/6 mice; settings: RS mice post-treated with cotinine via IN; p<0.01
Method: as §1, §2
This test is used to measure the antidepressant effects of drugs, and consists in placing each mouse in a transparent cylinder filled with water at room temperature (RT). After a brief period of strong activity, rodents adopt a characteristic immobile posture. The time mice spent immobile is a measure of depressive-like behavior. The immobility time will be recorded during a 15-min and a next day 5-min trial. The time spent by each mouse immobile will be recorded.

[3] = tested on: mice subjected to fear conditioning; experiment: Porsolt test after fear conditioning (Example 1, Experiment 3); assay type: in vivo, C57BL/6 mice; settings: FC mice, IN post-treatment; cotinine p<0.01, combination p<0.05
Method: Mice were treated via IN 2 hours after fear conditioning and continuously until euthanasia.
Mice (n=5-6/condition) received daily treatments with 1. PBS (phosphate buffer saline, pH 7.4) via intranasal (2×12 μl/nostril), 2. Cotinine dissolved in PBS via intranasal (Cot IN, 10 mg/ml, 2×12 μl/nostril); 3. Cotinine+krill oil both dissolved in PBS via intranasal (Cot IN, 10 mg/ml+KO, 48 mg/ml, 2×12 μl/nostril).
Contextual FC was performed as described. The conditioning chamber used is surrounded by a sound-attenuating box with a camera connected to freeze frame software (MED Associates Inc.), also equipped to provide a background white noise (72 dB). The conditioning chamber (33 cm×20 cm×22 cm) contains in one side a speaker and in the opposite slide has a 24V light. The chamber has a 36-bar insulated shock grid floor. […] Freezing behavior that is defined as the absence of all movement except the one needed for breathing was assessed using the FreezeView Software (MED Associates Inc.).
This test is used to measure the antidepressant effects of drugs, and consists in placing each mouse in a transparent cylinder filled with water at room temperature (RT). […] The immobility time will be recorded during a 15-min and a next day 5-min trial. The time spent by each mouse immobile will be recorded.

[4] = tested on: conditioned mice; experiment: Forced swim test after fear conditioning and extinction (Example 4); assay type: in vivo, Mice C57BL/6; settings: FC mice after extinction; Tukey: cotinine p<0.001, combination p<0.005, sertraline p<0.05
Method: Three-month-old mice (n=5-6/condition) were weighed and assigned to treatment groups. Mice were treated with vehicle or drugs, starting two h after fear conditioning and daily after behavioral testing until euthanasia. Mice received daily treatments with 1. PBS (phosphate buffer saline, pH 7.4) via intranasal; 2. Cotinine (10 mg/ml) dissolved in PBS via intranasal (IN Cot, 24 μl); 3. Krill oil dissolved in PBS, via intranasal (48 mg/ml, 24 μl); 4. Cotinine (10 mg/ml) plus krill oil dissolved in PBS, via intranasal (48 mg/ml, 24 μl); 5.
For intranasal delivery, mice were hand-restrained, placed in a supine position, and given two 12 μl drops of cotinine solutions, or PBS, into both nares consecutively. Mice were given an extra 12 μl treatment drop if the subject forcibly ejected or sneezed out the solution. Mice were held supine for 5-10 seconds after delivery to ensure that all fluid was inhaled.

## CN1C(=O)CC[C@H]1c1cccnc1 [Cotinine, (5S)-1-methyl-5-(3-pyridyl) pyrrolidin-2-one]
[1]; Tukey p<0.01
  locomotor activity (distance traveled) in the EPM: reduced significantly the locomotor activity in the RS mice
[1]; vs Ctrl non-restrained mice
  rearing activity in the elevated plus maze: did not show differences with Ctrl non-restrained mice
[2]
  depressive-like behavior (freezing/immobility) in the Porsolt test: significant decrease in depressive-like behavior
[3]
  depressive-like behavior (freezing) in the Porsolt test: significant decrease in depressive-like behavior
[4]
  depressive-like behavior (immobility) in the forced swim test: significantly decreased depressive-like behavior
